Laboratory results: US20030005484A1, “Microbiocidal and pesticidal aromatic aldehydes” (ProGuard, Inc., priority 1994, published 2003)

Experiments:
aphids = aphids on sprayed roses; type: in vivo; conditions: roses sprayed with emulsion of cinnamic aldehyde and sodium bicarbonate, concomitantly saponin
grape phylloxera = grape phylloxera adult and nymphal mortality, root dip; type: in vivo, Daktulosphaira vitifoliae; conditions: for mortality of adults and nymphs: root dip, 5 days
Protocol: Approximately twenty four eggs of phylloxera were allowed to develop for up to 30 days on standard excised grape roots. At around 30 days, some of the insects were nymphs while others were adults. New eggs were removed during the process. Insect infected roots were submerged into a test formula for 6 seconds then set aside to dry in the air. The percentage of live insects, as defined by growth, oviposition or limb movement, was determined after 5 days. An insect was considered dead if it abandoned its feed site.
In an initial test, doses of 20,000 ppm cinnamic aldehyde in water (i.e., 2% cinnamic aldehyde) with various additives were evaluated. Cinnamic aldehyde without any additives produced 83.3% mortality. With-1% Tween 80 added, 91.7% mortality was seen. With 6% NaHCO3 added to a solution of 2% cinnamic aldehyde, 91.7% mortality was seen. With 1% Tween 80 and 6% NaHCO3 added to a solution of 2% cinnamic aldehyde, 100% mortality was seen. Water with no additives produced no mortality, while a positive control solution of 250 ppm malathion in water gave 100% mortality.
For nymph and adult tests, eggs were placed on excised root pieces similar to those used for rearing purposes and these were sealed in Petri dishes and held at 24° C. for 18-25 days to allow insects to hatch, initiate feeding sites and develop. At about this time about half the population was in the adult stage. Prior to testing, the population on each root was determined as well as the developmental stage of each insect. Eggs were removed. These root pieces were then dipped for 5 sec into test solutions and allowed to air dry before they were returned to Petri dishes, sealed and placed back in the temperature chamber at 24° C. Mortality was determined after 5 days. Insects were considered dead if they appeared black or desiccated and if they had not developed since the pre-treatment reading and had laid no or few new eggs.

Root Knot Nematode = test: vineyard grape vines, nematode infestation: root knot; type: in vivo
Protocol: (§1) The subject formulations were tested for ability to reduce grape vine infestation by root knot, ring, stubby root, and roll lesion nematodes. Grape vines (Harmony rootstock) in a vinyard were treated with 1000 ppm or 3000 ppm cinnamaldehyde in 2% Tween 80, the commercial anti-nematode agent Nemacur, or a formulation blank. The extent of nematode infestation was determined at the time of treatment and at 30 and 60 days post-treatment.

Roll Lesion nematode = test: vineyard grape vines, nematode infestation: roll lesion; type: in vivo
Protocol: as §1

[1] = system: Fusarium subglutinans f. sp. pini; test: radial growth on amended potato dextrose agar; type: cell-based; conditions: five days at 18° C
Protocol: A double-blind bioassay was undertaken using cinnamic aldehyde in various concentrations and formulations. The bioassay was based on inhibition of radial growth of Fusarium subglutinans f. sp. pini. Eight ml of formulation (concentration unknown) was pipetted into 200 ml of molten 2% potato dextrose agar (PDA) and the mixture was dispersed into five plastic petri dishes (25 ml dish). Each of four plates was inoculated at the center with an agar plug transferred from a growing PDA culture of Fusarium subglutinans f. sp. pini (isolate SL-1, UCB), while the fifth plate was left noninoculated as a control. These steps were repeated for each formulation of the cinnamic aldehyde. As a positive control, four PDA plates amended with 5 ppm benomyl were inoculated. as described; the negative control was four unamended PDA plates that were inoculated with F. subglutinans. All inoculated and non-inoculated plates were incubated at 18° C. for five days, after which colony diameters were measured.

[2] = system: western flower thrips, Frankliniella occidentalis; test: western flower thrips dose-mortality on miniature rose foliage; type: in vivo
Protocol: Dose-mortality response of CNMA formula against western flower thrips, Frankliniella occidentalis, was evaluated. Three different dose levels of the CNMA formulation were tested in comparison with a water only control. Tests were conducted using 500 ml ventilated paper cartons as experimental areas containing miniature rose foliage with approximately 30 adult F. occidentalis in each. An F. occidentalis colony (U.C. Davis, Department of Entomology) maintained on chrysanthemums and miniature rose was the source of thrips for the study. Three active ingredient dose levels (0.1, 0.3, and 1.0%) were sprayed onto the plants using a laboratory spray tower calibrated to spray the field equivalent of 113 L per acre at the desired dosage. Four replicates (4 observations per treatment) were compared for each dosage. For each test, treatment cartons received the treatment and were maintained at room temperature. […] Table 20 presents the mean mortality treatment data.

[3] = 1000 ppm in 2% Tween 80, 30 days post-treatment
[4] = 1000 ppm in 2% Tween 80, 60 days post-treatment
[5] = 1000 ppm in 2% Tween 80, day 0 (time of treatment)
[6] = 3000 ppm in 2% Tween 80, 30 days post-treatment
[7] = 3000 ppm in 2% Tween 80, day 0 (time of treatment)

O=C/C=C/c1ccccc1 [cinnamic aldehyde] was tested, and the “aphids on treated plants” value (aphids) was “remained free of aphids”, the “mortality of adults and nymphs” value (grape phylloxera; 2% cinnamic aldehyde with 1% Tween 80) was 91.7% and the “mortality of adults and nymphs” value (grape phylloxera; 2% cinnamic aldehyde with 1% Tween 80 and 6% NaHCO3) was 100%. The “mortality of adults and nymphs” value (grape phylloxera; 2% cinnamic aldehyde with 6% NaHCO3) was 91.7%, the mortality at 20000 ppm (grape phylloxera; Daktulosphaira vitifoliae, 120 h, 2% cinnamic aldehyde (20,000 ppm) in water, no additives, roots submerged 6 seconds, read after 5 days, read-out: mortality of adults and nymphs) was 83.3% and the “Root Knot Nematode, nematodes per 250 cc soil” value (Root Knot Nematode; [3]) was 872 per 250 cc soil. The “Root Knot, nematodes per gram root” value (Root Knot Nematode; [3]) was 55.2 per gram root, the “Root Knot Nematode, nematodes per 250 cc soil” value (Root Knot Nematode; [4]) was 204.5 per 250 cc soil and the “Root Knot, nematodes per gram root” value (Root Knot Nematode; [4]) was 11.8 per gram root. For the same molecule, the “Root Knot Nematode, nematodes per 250 cc soil” value (Root Knot Nematode; [5]) was 498.8 per 250 cc soil, the “Root Knot, nematodes per gram root” value (Root Knot Nematode; [5]) was 301.3 per gram root and the “Root Knot Nematode, nematodes per 250 cc soil” value (Root Knot Nematode; [6]) was 700 per 250 cc soil. The “Root Knot, nematodes per gram root” value (Root Knot Nematode; [6]) was 125.6 per gram root, the “Root Knot Nematode, nematodes per 250 cc soil” value (Root Knot Nematode; 3000 ppm in 2% Tween 80, 60 days post-treatment) was 269.8 per 250 cc soil and the “Root Knot Nematode, nematodes per 250 cc soil” value (Root Knot Nematode; [7]) was 379.8 per 250 cc soil. For the same molecule, the “Root Knot, nematodes per gram root” value (Root Knot Nematode; [7]) was 24.4 per gram root, the “Roll Lesion, nematodes per gram root” value (Roll Lesion nematode; [3]) was 2.7 per gram root and the “Roll Lesion, nematodes per gram root” value (Roll Lesion nematode; [4]) was 0 per gram root. For the same molecule, the “Roll Lesion, nematodes per gram root” value (Roll Lesion nematode; [5]) was 2.9 per gram root, the “Roll Lesion, nematodes per gram root” value (Roll Lesion nematode; [6]) was 0.56 per gram root and the “Roll Lesion, nematodes per gram root” value (Roll Lesion nematode; [7]) was 1.0 per gram root. For the same molecule, the “Colony diameter (cm)” value ([1]; 10 ppm CNMA (with saponin: 0.86 ml Yucca extract 10° BRIX)) was 4.36 cm, the “Colony diameter (cm)” value ([1]; 10 ppm CNMA (with saponin: 0.86 ml Yucca extract 10° BRIX), listed as CNMA) was 4.363 cm and the “Colony diameter (cm)” value ([1]; 100 ppm CNMA (with saponin: 0.86 ml)) was 4.238 cm. For the same molecule, the “Colony diameter (cm)” value ([1]; 100 ppm CNMA (with saponin: 0.86 ml), listed as PGXL CNMA) was 4.24 cm, the “Colony diameter (cm)” value ([1]; 2,500 ppm CNMA (with saponin: 0.86 ml)) was 3.513 cm and the “Colony diameter (cm)” value ([1]; 2,500 ppm CNMA (with saponin: 0.86 ml), listed as PGXL CNMA) was 3.51 cm. The “Colony diameter (cm)” value ([1]; 5,000 ppm CNMA (with saponin: 0.86 ml)) was 2.908 cm, the “Colony diameter (cm)” value ([1]; 5,000 ppm CNMA (with saponin: 0.86 ml), listed as PGXL CNMA) was 2.91 cm and the “Colony diameter (cm)” value ([1]; 12,500 ppm CNMA (with saponin: 0.86 ml)) was 0.000 cm. The “Colony diameter (cm)” value ([1]; 12,500 ppm CNMA (with saponin: 0.86 ml), listed as PGXL CNMA) was 0 cm, the “Colony diameter (cm)” value ([1]; 25,000 ppm CNMA (with saponin: 0.86 ml)) was 0.000 cm and the “Colony diameter (cm)” value ([1]; 25,000 ppm CNMA (with saponin: 0.86 ml), listed as PGXL CNMA) was 0 cm. The “Mean Thrip Mortality” value ([2]; 0.1% CNMA (C), sampling time 1615) was 0.13, the “Mean Thrip Mortality” value ([2]; 0.1% CNMA (C), sampling time 1645) was 0.17 and the “Mean Thrip Mortality” value ([2]; 0.1% CNMA (C), sampling time 1715) was 0.17. For the same molecule, the “Mean Thrip Mortality” value ([2]; 0.1% CNMA (C), sampling time 1845) was 0.19, the “Mean Thrip Mortality” value ([2]; 0.1% CNMA (C), sampling time 2215) was 0.25 and the “Mean Thrip Mortality” value ([2]; 0.3% CNMA (B), sampling time 1615) was 0.26. The “Mean Thrip Mortality” value ([2]; 0.3% CNMA (B), sampling time 1645) was 0.28, the “Mean Thrip Mortality” value ([2]; 0.3% CNMA (B), sampling time 1715) was 0.28 and the “Mean Thrip Mortality” value ([2]; 0.3% CNMA (B), sampling time 1845) was 0.37. For the same molecule, the “Mean Thrip Mortality” value ([2]; 0.3% CNMA (B), sampling time 2215) was 0.40, the “Mean Thrip Mortality” value ([2]; 1.0% CNMA (A), sampling time 1615) was 0.79 and the “Mean Thrip Mortality” value ([2]; 1.0% CNMA (A), sampling time 1645) was 0.82. For the same molecule, the “Mean Thrip Mortality” value ([2]; 1.0% CNMA (A), sampling time 1715) was 0.78, the “Mean Thrip Mortality” value ([2]; 1.0% CNMA (A), sampling time 1845) was 0.84 and the “Mean Thrip Mortality” value ([2]; 1.0% CNMA (A), sampling time 2215) was 0.84.
